Laboratory results from patent US7144894B2, “Sulfonamide bicyclic compounds” (Bristol-Myers Squibb Company, priority 2004, dated 2006).

Test system: β-amyloid peptide formation
Test: Inhibition of β-amyloid peptide formation in human H4 cells
Assay type: cell-based
Conditions: H4 cells stably transfected to overexpress HPLAP-APP fusion protein; 18 hrs incubation; Aβ in supernatant; read-out: Binding affinity (IC50 in nM)
Description: γ-Secretase inhibitors were also evaluated using in vitro assays based on the inhibition of Aβ formation in cultured cells. Cultured human cell lines, such as HEK293 and H4 cells, which express APP and γ-secretase activity or transfected derivative cell lines that overexpress wild-type APP, mutant APP, or APP fusion proteins will secrete Aβ peptides into the culture media that can be quantified as previously outlined (Dovey H. et al., J. Neurochem. 2001, 76, 173). The incubation of these cultured cells with γ-secretase inhibitors decreases the production of Aβ peptides. For instance, H4 cells stably transfected to overexpress the HPLAP-APP fusion protein described above were grown as above, detached, and adjusted to 2×10^5 cells/ml. 100 μl of the resulting suspension was then added to each well of a 96-well plate. After 4 hrs, the media was removed and replaced with 100 μl serum-free media containing various dilutions of the test compound. Plates were then incubated for 18 hrs at 37° C. and a 100 μl aliquot of the tissue culture supernatant was removed for determination of Aβ levels using time-resolved fluorescence of the homogenous sample as outlined above. The extent of Aβ inhibition was used to calculate the IC50 value for the test compound.
Representative compounds were evaluated in the above assay and were determined to inhibit Aβ formation.

| IC50 [nM] | SMILES |
| --- | --- |
| 0.25 to 50 | CC(C)C[C@H](C(N)=O)N(Cc1ccc2c(c1)CCN(CC1CCC1)C2=O)S(=O)(=O)c1ccc(Cl)cc1 [Example 20, 2R-(N-(1-oxo-2-cyclobutylmethyl-1,2,3,4-tetrahydroisoquinolin-6-ylmethylamino)-N-4-chlorophenylsulfonyl)amino-4-methyl-pentanamide] |
| 0.25 to 50 | COCCN1CCc2cc(CN([C@H](CC(C)C)C(N)=O)S(=O)(=O)c3ccc(Cl)cc3)ccc2C1=O [Example 18, 2R-(N-(1-oxo-2-(2-methoxyethyl)-1,2,3,4-tetrahydroisoquinolin-6-ylmethylamino)-N-4-chlorophenylsulonyl)amino-4-methyl-pentanamide] |
| 0.25 to 50 | CCCCN1CCc2cc(CN([C@H](CC(C)C)C(N)=O)S(=O)(=O)c3ccc(Cl)cc3)ccc2C1=O [Example 16, 2R-(N-(1-oxo-2-butyl-1,2,3,4-tetrahydroisoquinolin-6-ylmethylamino)-N-4-chlorophenylsulfonyl)amino-4-methyl-pentanamide] |
| 0.25 to 50 | CC(C)C[C@H](C(N)=O)N(Cc1ccc2c(c1)CCN(C)C2=O)S(=O)(=O)c1ccc(Cl)cc1 [Example 14, 2R-(N-(1-oxo-2-methyl-1,2,3,4-tetrahydroisoquinolin-6-ylmethylamino)-N-4-chlorophenylsulfonyl)amino-4-methyl-pentanamide] |
| 0.25 to 50 | CC(C)C[C@H](C(N)=O)N(Cc1ccc2c(c1)CCN(Cc1ccccn1)C2=O)S(=O)(=O)c1ccc(Cl)cc1 [Example 13, 2R-(N-(1-oxo-2-(2-pyridylmethyl)-1,2,3,4-tetrahydroisoquinolin-6-ylmethylamino)-N-4-chlorophenylsulonyl)amino-4-methyl-pentanamide] |
| 0.25 to 50 | CCCN1CCc2cc(CN([C@H](CC(C)C)C(N)=O)S(=O)(=O)c3ccc(Cl)cc3)ccc2C1=O [Example 15, 2R-(N-(1-oxo-2-propyl-1,2,3,4-tetrahydroisoquinolin-6-ylmethylamino)-N-4-chlorophenylsulfonyl)amino-4-methyl-pentanamide] |
| 0.25 to 50 | CC(C)C[C@H](C(N)=O)N(Cc1ccc2c(c1)CCN(CC1CC1)C2=O)S(=O)(=O)c1ccc(Cl)cc1 [Example 19, 2R-(N-(1-oxo-2-cyclopropylmethyl-1,2,3,4-tetrahydroisoquinolin-6-ylmethylamino)-N-4-chlorophenylsulfonyl)amino-4-methyl-pentanamide] |
| 0.25 to 50 | CC(C)C[C@H](C(N)=O)N(Cc1ccc2c(c1)CCN(Cc1ccccc1)C2=O)S(=O)(=O)c1ccc(Cl)cc1 [Example 17, 2R-(N-(1-oxo-2-benzyl-1,2,3,4-tetrahydroisoquinolin-6-ylmethylamino)-N-4-chlorophenylsulfonyl)amino-4-methyl-pentanamide] |

| SMILES | IC50 [nM] |
| --- | --- |
| CCC(CC)N1CCc2cc(CN([C@H](CC3CC3)C(N)=O)S(=O)(=O)c3ccc(Cl)cc3)ccc2C1=O [Example 24, 2R-(N-(1-oxo-2-(3-pentyl)-1,2,3,4-tetrahydroisoquinolin-6-ylmethylamino)-N-4-chlorophenylsulfonyl)amino-3-cyclopropyl-propanamide] | 0.25 to 50 |
| CC(C)N1CCc2cc(CN([C@H](CC3CC3)C(N)=O)S(=O)(=O)c3ccc(Cl)cc3)ccc2C1=O [Example 23, 2R-(N-(1-oxo-2-(2-propyl)-1,2,3,4-tetrahydroisoquinolin-6-ylmethylamino)-N-4-chlorophenylsulfonyl)amino-3-cyclopropyl-propanamide] | 0.25 to 50 |

Same assay, conditions: Homo sapiens; H4 cells stably transfected to overexpress HPLAP-APP fusion protein; 18 hrs incubation; Aβ in supernatant; read-out: Binding affinity (IC50 in nM)

| IC50 [nM] | SMILES |
| --- | --- |
| 0.25 to 50 | Cc1cc2cc(CN([C@H](CC(C)C)C(N)=O)S(=O)(=O)c3ccc(Cl)cc3)ccc2n1C(=O)OC(C)(C)C [Example 3, 2R-(N-(1-t-Butyloxycarbonyl-2-methylindol-5-ylmethyl)-N-4-chlorophenylsulfonyl)amino-4-methyl-pentanamide] |
| 0.25 to 50 | CC(C)C[C@H](C(N)=O)N(Cc1ccc2c(c1)CCNC2=O)S(=O)(=O)c1ccc(Cl)cc1 [Example 5, 2R-(N-(1-oxo-1,2,3,4-tetrahydroisoquinolin-6-ylmethyl)-N-4-chlorophenylsulfonyl)amino-4-methyl-pentanamide] |
| 0.25 to 50 | CC(C)C[C@H](C(N)=O)N(Cc1ccc2c(c1)CCN2C)S(=O)(=O)c1ccc(Cl)cc1 [Example 10, 2R-(N-1-methylindolin-5-yl-N-4-chlorophenylsulfonyl)methylamino-4-methyl-pentanamide] |
| 0.25 to 50 | CC(C)C[C@H](C(N)=O)N(Cc1ccc2[nH]ccc2c1)S(=O)(=O)c1ccc(Cl)cc1 [Example 2, 2R-(N-indol-5-ylmethyl-N-4-chlorophenylsulfonyl)amino-4-methyl-pentanamide] |
| 0.25 to 50 | CC(C)C[C@H](C(N)=O)N(Cc1ccc2c(c1)CCN2C(=O)C1CCCC1)S(=O)(=O)c1ccc(Cl)cc1 [Example 12, 2R-(N-1-cyclopentylcarbonylindolin-5-yl-N-4-chlorophenylsulfonyl)methylamino-4-methyl-pentanamide] |
| 0.25 to 50 | CCN1CCc2cc(CN([C@H](CC(C)C)C(N)=O)S(=O)(=O)c3ccc(Cl)cc3)ccc2C1=O [Example 6, 2R-(N-(1-oxo-2-ethyl-1,2,3,4-tetrahydroisoquinolin-6-ylmethylamino)-N-4-chlorophenylsulfonyl)amino-4-methyl-pentanamide] |
| 0.25 to 50 | CCN1CCc2cc(CN([C@H](CC3CC3)C(N)=O)S(=O)(=O)c3ccc(Cl)cc3)ccc2C1=O [Example 21, 2R-(N-(1-oxo-2-ethyl-1,2,3,4-tetrahydroisoquinolin-6-ylmethylamino)-N-4-chlorophenylsulfonyl)amino-3-cyclopropyl-propanamide] |
| 0.25 to 50 | CC(C)C[C@H](C(N)=O)N(Cc1ccc2c(c1)CCN2)S(=O)(=O)c1ccc(Cl)cc1 [Example 9, 2R-(N-indolin-5-yl-N-4-chlorophenylsulfonyl)methylamino-4-methyl-pentanamide] |
| 0.25 to 50 | CCN1CCc2cc(CN([C@H](CC(F)F)C(N)=O)S(=O)(=O)c3ccc(Cl)cc3)ccc2C1=O [Example 22, 2R-(N-(1-oxo-2-ethyl-1,2,3,4-tetrahydroisoquinolin-6-ylmethylamino)-N-4-chlorophenylsulfonyl)amino-4,4-difluorobutanamide] |
| 0.25 to 50 | Cc1cc2cc(CN([C@H](CC(C)C)C(N)=O)S(=O)(=O)c3ccc(Cl)cc3)ccc2[nH]1 [Example 4, 2R-(N-(2-methylindol-5-ylmethyl)-N-4-chlorophenylsulfonyl)amino-4-methyl-pentanamide] |
| 50 to 500 | CC(C)C[C@H](C(N)=O)N(Cc1ccc2c(c1)CCC(=O)N2)S(=O)(=O)c1ccc(Cl)cc1 [Example 7, 2R-(N-(2-oxo-1,2,3,4-tetrahydroquinolin-6-ylmethyl)-N-4-chlorophenylsulfonyl)amino-4-methyl-pentanamide] |

Test system: not listed separately
Test: HPLC log P
Assay type: physicochemical
Conditions: pH 7.0

| chromatographic logP | SMILES |
| --- | --- |
| 3.81 | CC(C)C[C@H](C(N)=O)N(Cc1ccc2[nH]ccc2c1)S(=O)(=O)c1ccc(Cl)cc1 [Example 2, 2R-(N-indol-5-ylmethyl-N-4-chlorophenylsulfonyl)amino-4-methyl-pentanamide] |
| 4.21 | Cc1cc2cc(CN([C@H](CC(C)C)C(N)=O)S(=O)(=O)c3ccc(Cl)cc3)ccc2[nH]1 [Example 4, 2R-(N-(2-methylindol-5-ylmethyl)-N-4-chlorophenylsulfonyl)amino-4-methyl-pentanamide] |
